In the supplement of paper PMC10307832:

How the values were obtained:
Experiment in all cases: relative viability (nuclei count vs DMSO), 5 days (fraction); higher = more cells survive
Decitabine + OSI-027 = compound: Nc1ncn([C@H]2C[C@H](O)[C@@H](CO)O2)c(=O)n1 [Decitabine] + COc1cccc2cc(-c3nc([C@H]4CC[C@H](C(=O)O)CC4)n4ncnc(N)c34)[nH]c12 [OSI-027] (partner 0.5 µM)
Outline: (§1)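 Lung cancer cell lines in 1536-well plates were dosed by pin tool the day after seeding, either with one drug alone or with a fixed anchor-drug dose plus five library-drug doses (not always all listed) in √10 steps. After 5 days, cells were fixed and their nuclei stained in one step (final 0.05% Triton X-100, 1% formaldehyde, 1 ug/ml Hoechst), then counted on 4× images. Relative viability is the nuclei count in treated wells divided by that in vehicle wells. Values are medians of duplicate plates.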

Decitabine + Lapatinib = compound: Nc1ncn([C@H]2C[C@H](O)[C@@H](CO)O2)c(=O)n1 [Decitabine] + CS(=O)(=O)CCNCc1ccc(-c2ccc3ncnc(Nc4ccc(OCc5cccc(F)c5)c(Cl)c4)c3c2)o1 [Lapatinib] (partner 2 µM)
Outline: as §1

[1] = compound: O=C(C[C@H]1NCCC[C@@H]1O)Cn1cnc2cc(Br)c(Cl)cc2c1=O (racemic) [Halofuginone] + C[C@@H](Oc1cc(-c2cnn(C3CCNCC3)c2)cnc1N)c1c(Cl)ccc(F)c1Cl [Crizotinib] (partner 1 µM)
Outline: as §1

Halofuginone + Olaparib = compound: O=C(C[C@H]1NCCC[C@@H]1O)Cn1cnc2cc(Br)c(Cl)cc2c1=O (racemic) [Halofuginone] + O=C(c1cc(Cc2n[nH]c(=O)c3ccccc23)ccc1F)N1CCN(C(=O)C2CC2)CC1 [Olaparib] (partner 8 µM)
Outline: as §1

With UMC-11 as the cell line, how does the relative viability (Decitabine + OSI-027; first compound 0.04 µM) read?
Its relative viability is 0.46.

And the relative viability (Decitabine + OSI-027; first compound 0.1265 µM)?
Its relative viability is 0.0004.

What about the relative viability (Decitabine + OSI-027; first compound 0.4 µM) of the same cell line?
The relative viability was 0.411.

And the relative viability (Decitabine + OSI-027; first compound 1.265 µM)?
Its relative viability is 0.316.

And the relative viability (Decitabine + OSI-027; first compound 4 µM)?
The relative viability was 0.363.

What about the relative viability (Decitabine + Lapatinib; first compound 0.04 µM) of the same cell line?
Its relative viability is 0.877.

What about the relative viability (Decitabine + Lapatinib; first compound 0.1265 µM) of the same cell line?
Its relative viability is 0.832.

What about the relative viability (Decitabine + Lapatinib; first compound 0.4 µM) of the same cell line?
The relative viability was 0.434.

And the relative viability (Decitabine + Lapatinib; first compound 1.265 µM)?
Its relative viability is 0.357.

What about the relative viability (Decitabine + Lapatinib; first compound 4 µM) of the same cell line?
The relative viability was 0.346.

And the relative viability ([1]; first compound 0.001 µM)?
Its relative viability is 0.66.

What about the relative viability ([1]; first compound 0.003162 µM) of the same cell line?
The relative viability was 0.558.

And the relative viability ([1]; first compound 0.01 µM)?
Its relative viability is 0.575.

And the relative viability ([1]; first compound 0.03162 µM)?
The relative viability was 0.534.

What about the relative viability ([1]; first compound 0.1 µM) of the same cell line?
Its relative viability is 0.215.

What about the relative viability (Halofuginone + Olaparib; first compound 0.001 µM) of the same cell line?
Its relative viability is 0.426.

And the relative viability (Halofuginone + Olaparib; first compound 0.003162 µM)?
Its relative viability is 0.381.

And the relative viability (Halofuginone + Olaparib; first compound 0.01 µM)?
The relative viability was 0.566.

What about the relative viability (Halofuginone + Olaparib; first compound 0.03162 µM) of the same cell line?
The relative viability was 0.471.

And the relative viability (Halofuginone + Olaparib; first compound 0.1 µM)?
The relative viability was 0.226.
